From patent publication US6696497B2, “Fungicidal mixtures” (BASF Aktiengesellschaft, priority 2000, dated 2004)

Legend:
[1] = test system: Plasmopara viticola on grapes; assay: Fungicidal efficacy (2 day curative) on grapes, greenhouse; type: in vivo; conditions: single compound
Method: (§1) The trials are carried out under greenhouse conditions in residual or curative applications. The fungicides are applied in single treatments, or in a combination comprising a benzophenone of formula I and a compound of formula II. The compounds are applied in form of an aqueous spray mix obtained from concentrated formulation or the technical material.
(§2) Grape plants of variety “Mueller-Thurgau” are grown in the greenhouse from small stake cuttings. When about 40 cm high, the number of leaves is reduced to 4 fully expanded leaves per plant.
(§3) The compounds are dissolved in acetone with 0.5% TRITON™ X155 (an alkylaryl polyether alcohol), and sprayed in concentrations and combinations as given in tables I and II with a three nozzle overhead fungicide sprayer to near run-off. Plants are then allowed to air-dry.
(§4) Inoculation precedes treatment in the case of curative evaluations and follows treatment in case of residual evaluations.
(§5) For inoculation an aqueous spore suspension of the pathogen is applied to the plant and the plants are kept 1-2 days in a moist infection chamber before being returned to the greenhouse where they are maintained by bottom watering.
(§6) Disease on the foliage as percent leaf area with disease symptoms/signs is evaluated about 7 days after inoculation. [formula]
(§7) Assessments of the diseases took place at the indicated day after the application of the compounds. Percent infected leaf area infected was evaluated. The efficacy of the compounds/compounds mixtures to control the diseases was calculated by using the formula given above.
(§8) Synergy was calculated using the % disease control values of specific treatments for the two COLBY formula given hereinabove.
Fungicidal efficacy of the mixture of BP-4+iprovalicarb (2 day curative) against Plasmopara viticola on grapes
The tank mix was obtained from technical materials of BP-4 and iprovalicarb.

[2] = test system: Plasmopara viticola on grapes; assay: Fungicidal efficacy (3 day residual) on grapes, greenhouse; type: in vivo; conditions: single compound
Method: as §1, §2, §3, §4, §5, §6, §7, §8
Fungicidal efficacy of the mixture of BP-4+iprovalicarb (3 day residual) against Plasmopara viticola on grapes
tank mix was obtained from technical materials of BP-4 and iprovalicarb.

SMILES	Observed Efficacy ([1]; dose rate 0.037 ppm) [%]	Observed Efficacy ([1]; dose rate 0.11 ppm) [%]	Observed Efficacy ([1]; dose rate 0.33 ppm) [%]	Observed Efficacy ([1]; dose rate 1 ppm) [%]	Observed Efficacy ([1]; dose rate 3 ppm) [%]	Observed Efficacy ([1]; dose rate 9 ppm) [%]	Observed Efficacy ([1]; dose rate 27 ppm) [%]	Observed Efficacy ([2]; dose rate 0.037 ppm) [%]	Observed Efficacy ([2]; dose rate 0.11 ppm) [%]	Observed Efficacy ([2]; dose rate 0.33 ppm) [%]	Observed Efficacy ([2]; dose rate 1 ppm) [%]	Observed Efficacy ([2]; dose rate 3 ppm) [%]	Observed Efficacy ([2]; dose rate 9 ppm) [%]	Observed Efficacy ([2]; dose rate 27 ppm) [%]
COc1cc(C)c(C(=O)c2c(OC)ccc(Br)c2C)c(OC)c1OC [BP-4, 5-bromo-2′,6-dimethyl-2,4′,5′,6′-tetramethoxybenzophenone]	0	0	0	0	0	0	2	0	0	0	0	1	4	6
Cc1ccc(C(C)NC(=O)C(NC(=O)OC(C)C)C(C)C)cc1 (stereo not drawn) [iprovalicarb, [2-methyl-1-[1-(4-methylphenyl)-ethylaminocarbonyl]-propyl]-carbamic acid isopropyl ester, reference compound]		0	2	11	63	91			0	3	11	55	90	
